The nature of data set [1]: Inhibition of MC1 by NADH-DB reductase assay. Further details: species or system Homo sapiens.
Data set [2] concerns Liver. In words: Biodistribution in Sprague-Dawley rat liver at 15 uCi, iv after 120 mins. It is filed as ADME, organism-based. To be noted: in vivo, 2 h.
Data set [3] relates to Spleen. In words: Biodistribution in Sprague-Dawley rat spleen at 15 uCi, iv after 120 mins. The format is ADME, organism-based. The conditions noted are these: in vivo, 2 h.
The subject of data set [4] is Kidney. In words: Biodistribution in Sprague-Dawley rat kidney at 15 uCi, iv after 120 mins. The format is ADME, organism-based. To be noted: in vivo, 2 h.
Data set [5] deals with Rattus norvegicus. In words: Biodistribution in Sprague-Dawley rat urine at 15 uCi, iv after 120 mins. The format is ADME, organism-based. To be noted: in vivo, 2 h.
Data set [6] relates to Muscle tissue. In words: Biodistribution in Sprague-Dawley rat muscle at 15 uCi, iv after 120 mins. The format is ADME, organism-based. The conditions noted are these: in vivo, 2 h.
For data set [7], the system named is Nucleic Acid. In words: Ratio of drug uptake in heart to liver of Sprague-Dawley rat at 30 mins. The format is ADME. To be noted: in vivo, 0.5 h.
The subject of data set [8] is Femur. In words: Biodistribution in Sprague-Dawley rat femur at 15 uCi, iv after 120 mins. The conditions noted are these: in vivo, 2 h. The format is ADME, organism-based.
For data set [9], the system named is Nucleic Acid. In words: Ratio of drug uptake in heart to lung of Sprague-Dawley rat at 30 mins. The format is ADME. To be noted: in vivo, 0.5 h.
Data set [10] concerns Nucleic Acid. In words: Ratio of drug uptake in heart to lung of Sprague-Dawley rat at 60 mins. The format is ADME. The conditions noted are these: in vivo, 1 h.
Data set [11] relates to Nucleic Acid. In words: Ratio of drug uptake in heart to liver of Sprague-Dawley rat at 60 mins. To be noted: in vivo, 1 h. The format is ADME.
Data set [12] deals with Nucleic Acid. In words: Ratio of drug uptake in heart to femur of Sprague-Dawley rat at 60 mins. It is filed as ADME. The conditions noted are these: in vivo, 1 h.
Data set [13] has as its system Heart. In words: Biodistribution in Sprague-Dawley rat heart at 15 uCi, iv after 30 mins. It is filed as ADME, organism-based. To be noted: in vivo, 0.5 h.
Data set [14] relates to Blood. In words: Biodistribution in Sprague-Dawley rat blood at 15 uCi, iv after 30 mins. The conditions noted are these: in vivo, 0.5 h. It is filed as ADME, organism-based.
Data set [15] has as its system Lung. In words: Biodistribution in Sprague-Dawley rat lung at 15 uCi, iv after 30 mins. The format is ADME, organism-based. The conditions noted are these: in vivo, 0.5 h.
Data set [16] concerns Liver. In words: Biodistribution in Sprague-Dawley rat liver at 15 uCi, iv after 30 mins. It is filed as ADME, organism-based. To be noted: in vivo, 0.5 h.
In data set [17] the test system is Spleen. In words: Biodistribution in Sprague-Dawley rat spleen at 15 uCi, iv after 30 mins. It is filed as ADME, organism-based. To be noted: in vivo, 0.5 h.
The test system of data set [18] is Kidney. In words: Biodistribution in Sprague-Dawley rat kidney at 15 uCi, iv after 30 mins. To be noted: in vivo, 0.5 h. It is filed as ADME, organism-based.
The test system of data set [19] is Rattus norvegicus. In words: Biodistribution in Sprague-Dawley rat urine at 15 uCi, iv after 30 mins. The conditions noted are these: in vivo, 0.5 h. It is filed as ADME, organism-based.
Data set [20] concerns Muscle tissue. In words: Biodistribution in Sprague-Dawley rat muscle at 15 uCi, iv after 30 mins. The format is ADME, organism-based. To be noted: in vivo, 0.5 h.
The subject of data set [21] is Femur. In words: Biodistribution in Sprague-Dawley rat femur at 15 uCi, iv after 30 mins. It is filed as ADME, organism-based. The conditions noted are these: in vivo, 0.5 h.
For data set [22], the system named is Heart. In words: Biodistribution in Sprague-Dawley rat heart at 15 uCi, iv after 120 mins. It is filed as ADME, organism-based. To be noted: in vivo, 2 h.
Data set [23] has as its system Blood. In words: Biodistribution in Sprague-Dawley rat blood at 15 uCi, iv after 120 mins. It is filed as ADME, organism-based. To be noted: in vivo, 2 h.
Data set [24] has as its system Lung. In words: Biodistribution in Sprague-Dawley rat lung at 15 uCi, iv after 120 mins. To be noted: in vivo, 2 h. The format is ADME, organism-based.

Structures are written as SMILES.

What is called IC50 is the concentration at which inhibition is half-maximal. Low values mean greater potency, high ones weaker potency.

For the compound `CC(C)(C)c1ccc(CNc2ncnc3ccccc23)cc1`, the half-maximal inhibitory concentration (IC50) in data set [1] is 0.241 µM.

Turning to `CCCCc1ccc(CCOc2ncnc3ccccc23)cc1`, the IC50 in data set [1] turned out to be 0.0375 µM. Compared with the last compound, the IC50 is about 6.4-fold lower.

In turn, `OCCCCc1ccc(CCOc2ncnc3ccccc23)cc1` displayed an IC50 in data set [1] of 0.0224 µM.

The compound `FCCCCCc1ccc(CCOc2ncnc3ccccc23)cc1` displayed an IC50 in data set [1] of 0.0113 µM.

`CCCC(F)c1ccc(CCOc2ncnc3ccccc23)cc1` (configuration not stated) came in with a 50% inhibitory concentration (IC50) in [1] of 0.0193 µM.

In data set [1], `CCCCc1ccc(COc2ncnc3ccccc23)cc1` registered an IC50 of 1 µM. This IC50 lies about 52-fold higher than the previous one.

Compound `OCCCCc1ccc(COc2ncnc3ccccc23)cc1` had a half-maximal inhibitory concentration (IC50) in [1] of 0.414 µM.

In data set [1], `CCCC(O)c1ccc(CCOc2ncnc3ccccc23)cc1` (configuration not stated) came in with an IC50 of 0.0217 µM. This IC50 lies about 19-fold lower than the previous one.

Take `[18F]CCCCCc1ccc(CCOc2ncnc3ccccc23)cc1`: the Drug uptake in the data set with Liver [2] worked out at 0.44 % ID/g; with Spleen [3], 0.07 % ID/g; in the data set with Kidney [4] it was 0.68 % ID/g; in the data set on Rattus norvegicus [5], 4.44 % ID/g; in the data set on Muscle tissue [6], 0.12 % ID/g; in the data set with Femur [8], 0.65 % ID/g. The Drug uptake stood at 3.22 % ID/g in the data set with Heart [13]; 0.08 % ID/g with Blood [14]; 0.28 % ID/g with Lung [15]; 1.29 % ID/g with Liver [16]; 0.19 % ID/g in the data set on Spleen [17]; 1.99 % ID/g with Kidney [18]. Besides, the Drug uptake came to 0.5 % ID/g with Rattus norvegicus [19]; 0.08 % ID/g in the data set with Muscle tissue [20]; 0.19 % ID/g with Femur [21]; 2.5 % ID/g in the data set with Heart [22]; 0.06 % ID/g in the data set on Blood [23]; 0.11 % ID/g with Lung [24]. For the same compound, the Ratio in the data set on Nucleic Acid [7] is given as 23; in the data set with Nucleic Acid [9] it was 11.3; in the data set on Nucleic Acid [10], 2.5; with Nucleic Acid [11], 5.7; with Nucleic Acid [12], 3.6.

In data set [1], `CC(C)(C)c1ccc(CCOc2ncnc3ccccc23)cc1` [FENAZAQUIN] displayed a half-inhibitory concentration (IC50) of 0.004 µM.

For the origin of these results see ChEMBL document CHEMBL1140687, “Quinazoline derivatives as MC-I inhibitors: evaluation of myocardial uptake using Positron Emission Tomography in rat and non-human primate” (Bioorg Med Chem Lett, 2007).
